The supplement of paper PMC10307832

Assays:
Assay in all cases: relative viability (nuclei count vs DMSO), 5 days (fraction); higher = more cells survive
NCI-H460 = test system: NCI-H460
How it was run: (§1)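 Five library-drug doses in √10 steps were combined with a fixed anchor-drug dose, or a single drug was given alone, by pin tool to lung cancer cell lines in 1536-well plates the day after seeding. Nuclei were stained and counted after 5 days. Relative viability is the nuclei count in treated wells over that in vehicle wells, taken as the median of duplicate plates.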

RERF-LC-KJ = test system: RERF-LC-KJ
How it was run: as §1

NCI-H650 = test system: NCI-H650
How it was run: as §1

NCI-H1793 = test system: NCI-H1793
How it was run: as §1

SW 1573 = test system: SW 1573
How it was run: as §1

NCI-H520 = test system: NCI-H520
How it was run: as §1

NCI-H838 = test system: NCI-H838
How it was run: as §1

EKVX = test system: EKVX
How it was run: as §1

NCI-H2347 = test system: NCI-H2347
How it was run: as §1

NCI-H1666 = test system: NCI-H1666
How it was run: as §1

A-427 = test system: A-427
How it was run: as §1

LCLC-97TM1 = test system: LCLC-97TM1
How it was run: as §1

O=C(O)CCCCC(CCSCc1ccccc1)SCc1ccccc1 (configuration not stated) [CPI-613] + Cc1nc(Nc2ncc(C(=O)Nc3c(C)cccc3Cl)s2)cc(N2CCN(CCO)CC2)n1 [Dasatinib] (partner 0.075 µM)
relative viability (NCI-H460; first compound 5 µM): 0.54 | relative viability (NCI-H460; first compound 15.81 µM): 0.454 | relative viability (NCI-H460; first compound 50 µM): 0.572 | relative viability (NCI-H460; first compound 158.11 µM): 0.334 | relative viability (NCI-H460; first compound 500 µM): 0.317 | relative viability (RERF-LC-KJ; first compound 5 µM): 0.784 | relative viability (RERF-LC-KJ; first compound 15.81 µM): 0.754 | relative viability (RERF-LC-KJ; first compound 50 µM): 0.766 | relative viability (RERF-LC-KJ; first compound 158.11 µM): 0.198 | relative viability (RERF-LC-KJ; first compound 500 µM): 0.123 | relative viability (NCI-H650; first compound 5 µM): 0.474 | relative viability (NCI-H650; first compound 15.81 µM): 0.366 | relative viability (NCI-H650; first compound 50 µM): 0.424 | relative viability (NCI-H650; first compound 158.11 µM): 0.345 | relative viability (NCI-H650; first compound 500 µM): 0.361 | relative viability (NCI-H1793; first compound 5 µM): 0.327 | relative viability (NCI-H1793; first compound 15.81 µM): 0.317 | relative viability (NCI-H1793; first compound 50 µM): 0.421 | relative viability (NCI-H1793; first compound 158.11 µM): 0.165 | relative viability (NCI-H1793; first compound 500 µM): 0.018 | relative viability (SW 1573; first compound 5 µM): 0.452 | relative viability (SW 1573; first compound 15.81 µM): 0.503 | relative viability (SW 1573; first compound 50 µM): 0.467 | relative viability (SW 1573; first compound 158.11 µM): 0.118 | relative viability (SW 1573; first compound 500 µM): 0.0385 | relative viability (NCI-H520; first compound 5 µM): 0.188 | relative viability (NCI-H520; first compound 15.81 µM): 0.17 | relative viability (NCI-H520; first compound 50 µM): 0.202 | relative viability (NCI-H520; first compound 158.11 µM): 0.168 | relative viability (NCI-H520; first compound 500 µM): 0.149 | relative viability (NCI-H838; first compound 5 µM): 0.285 | relative viability (NCI-H838; first compound 15.81 µM): 0.237 | relative viability (NCI-H838; first compound 50 µM): 0.286 | relative viability (NCI-H838; first compound 158.11 µM): 0.261 | relative viability (NCI-H838; first compound 500 µM): 0.243 | relative viability (EKVX; first compound 5 µM): 0.561 | relative viability (EKVX; first compound 15.81 µM): 0.482 | relative viability (EKVX; first compound 50 µM): 0.565 | relative viability (EKVX; first compound 158.11 µM): 0.466 | relative viability (EKVX; first compound 500 µM): 0.517 | relative viability (NCI-H2347; first compound 5 µM): 0.295 | relative viability (NCI-H2347; first compound 15.81 µM): 0.308 | relative viability (NCI-H2347; first compound 50 µM): 0.227 | relative viability (NCI-H2347; first compound 158.11 µM): 0.315 | relative viability (NCI-H2347; first compound 500 µM): 0.327 | relative viability (NCI-H1666; first compound 5 µM): 0.808 | relative viability (NCI-H1666; first compound 15.81 µM): 0.858 | relative viability (NCI-H1666; first compound 50 µM): 0.749 | relative viability (NCI-H1666; first compound 158.11 µM): 0.386 | relative viability (NCI-H1666; first compound 500 µM): 0.18 | relative viability (A-427; first compound 5 µM): 0.684 | relative viability (A-427; first compound 15.81 µM): 0.765 | relative viability (A-427; first compound 50 µM): 0.547 | relative viability (A-427; first compound 158.11 µM): 0.365 | relative viability (A-427; first compound 500 µM): 0.131 | relative viability (LCLC-97TM1; first compound 5 µM): 0.843 | relative viability (LCLC-97TM1; first compound 15.81 µM): 0.901
